Patent US20060025430A1, “Novel irreversible inhibitors of epidermal growth factor receptor tyrosine kinase and uses thereof for therapy and diagnosis” (priority 2003, published 2006)

Key:
EGFR-TK = molecular target: T1, EGFR-TK (Homo sapiens, UniProt P00533); experiment: EGFR-TK autophosphorylation inhibition in intact A431 cells (irreversibility assay, Western blot); assay type: cell-based; conditions: inhibitor concentration at which 50% inhibition was achieved eight hours post incubation, intact A431 cells, eight hours post incubation
T1 construct: The supernatant, which contained the EGFR, was collected and frozen; endogenous in cells; host or cells: A431 cells (A1: Triton X-100 lysate captured on mAb108; A2: intact cells)
Experimental: A431 cells (5×10^5) were seeded in 6-well plates and grown for 24 hours to about 90% confluence in DMEM (high glucose) containing 10% fetal calf serum (FCS) and antibiotics at 37° C. The cells were then exposed to serum-free medium, at 37° C., for 18 hours.
[…] The medium was replaced thereafter with an inhibitor/FCS-free medium and the cells were divided into two groups: cells of the first group were immediately stimulated with EGF (20 ng/ml) for 5 minutes and then washed with PBS, while cells of the second group were incubated for additional 8 hours, at 37° C. During the 8 hours period, the medium was changed three times (after 2, 4 and 8 hours). After the post-incubation period, the cells of the second group were stimulated with EGF (20 ng/ml) for 5 minutes and then washed with PBS.
(§1) Identical protein amounts from each lysate sample were loaded onto polyacrylamide gel (6% or 10%), separated by electrophoresis (Hoefer Pharmacia Biotech Inc., San Francisco, USA) and transferred to nitrocellulose membrane (power supply: EPS 500/400, Amersham Pharmacia Biotech; nitrocellulose extra blotting membranes: Sartorius AG, Goettingen, Germany). A standard high molecular weight solution was loaded as a reference. For visualization of molecular weight bands, the membrane was immersed in Ponceau reagent (0.05% Ponceau, 5% acetic acid) for a few minutes, and then washed twice with TTN (10 mM Tris pH 7.4, 0.2% TWEEN 20, 170 mM NaCl) and once with water. The membrane was blocked overnight in TTN containing 5% milk (1% fat) (blocking TTN) and incubated for 90 minutes with PY20 antiphosphotyrosine antibody (Santa Cruz Biotechnology Inc., Santa Cruz, USA) diluted 1:2,000 in blocking TTN. The membrane was then washed with TTN (3×5 minutes), incubated for 90 minutes with a horseradish peroxidase-conjugated secondary antibody (Goat anti-mouse IgG H+L, Jackson ImResearch Laboratories, Inc., diluted 1:10,000 in blocking TTN), and finally washed again with TTN (3×5 minutes).
After the incubation, the media was replaced with inhibitor/FCS-free media and the inhibition effect was measured either immediately thereafter or after 8 hours post incubation.

HER1-HER2 chimera = molecular target: T2, HER1-HER2 chimera (Homo sapiens, UniProt P04626); experiment: Selective-inhibition assay in CSH12 cells (receptor phosphotyrosine, Western blot); assay type: cell-based; conditions: CSH12 cells expressing HER1-HER2 chimera, 1 hour incubation, EGF stimulation
T2 construct: HER2 cytoplasmic domain generates normal mitogenic and transforming signals in a chimeric receptor; expressed in transfected cells; host or cells: NIH3T3 (CSH12 cells); the other entry of the earlier key: EGFR (P00533, Epidermal growth factor receptor)
From the text: as §1

PDGFR = PDGFR (Homo sapiens, UniProt P09619); experiment: Selective-inhibition assay in […] cells (receptor phosphotyrosine, Western blot); assay type: cell-based; conditions: […] cells expressing PDGFR, 1 hour incubation, PDGFββ stimulation
Experimental: NIH3T3 cells transformed with either the EGFR (DHER14 cells), with the HER1-HER2 chimera (CSH12 cells) or with the PDGFR (NIH/PDGFR cells), decribed by Lee et al.; 1989, Honegger et al., 1988; and Shawver et al. 1997, and A431 human epidermoid vulval carcinoma cells were grown in Dulbecco's modified Eagle's medium (DMEM) (Biological industries, Kibbuts Beit Haemek, Israel) supplemented with 10% fetal calf serum and antibiotics (penicillin […], streptomycin 100 mg/liter) at 37° C. in 5% CO2.
Selective-inhibition assay: CSH12, DHER14 and […] cells, expressing either the HER1-HER2 chimera, EGFR or PDGFR, respectively, were used for the determination of inhibitory selectivity. Cells (7.5×10^4) were grown in 6-well plates (35 mm diameter, Nalge Nunc) for 24 hours and then incubated in 0.25% FCS-containing medium for an additional 24 hours to about 90% confluence. Duplicate sets of cells were treated with the tested compounds at varying concentrations for 1 hour. The final concentration of the vehicle in the medium was 0.05% DMSO, 0.1% EtOH. After removal of the inhibitor from the medium, PBS wash (×2) and addition of 0.25% serum-containing medium to the wells, the cells were stimulated with either 20 ng/mL human EGF for 5 minutes (CSH12 and DHER14 cells) or 50 ng/ml human PDGFββ for 10 minutes ([…] cells) at 37° C. […]

PDGFR, sequence (P09619 whole entry): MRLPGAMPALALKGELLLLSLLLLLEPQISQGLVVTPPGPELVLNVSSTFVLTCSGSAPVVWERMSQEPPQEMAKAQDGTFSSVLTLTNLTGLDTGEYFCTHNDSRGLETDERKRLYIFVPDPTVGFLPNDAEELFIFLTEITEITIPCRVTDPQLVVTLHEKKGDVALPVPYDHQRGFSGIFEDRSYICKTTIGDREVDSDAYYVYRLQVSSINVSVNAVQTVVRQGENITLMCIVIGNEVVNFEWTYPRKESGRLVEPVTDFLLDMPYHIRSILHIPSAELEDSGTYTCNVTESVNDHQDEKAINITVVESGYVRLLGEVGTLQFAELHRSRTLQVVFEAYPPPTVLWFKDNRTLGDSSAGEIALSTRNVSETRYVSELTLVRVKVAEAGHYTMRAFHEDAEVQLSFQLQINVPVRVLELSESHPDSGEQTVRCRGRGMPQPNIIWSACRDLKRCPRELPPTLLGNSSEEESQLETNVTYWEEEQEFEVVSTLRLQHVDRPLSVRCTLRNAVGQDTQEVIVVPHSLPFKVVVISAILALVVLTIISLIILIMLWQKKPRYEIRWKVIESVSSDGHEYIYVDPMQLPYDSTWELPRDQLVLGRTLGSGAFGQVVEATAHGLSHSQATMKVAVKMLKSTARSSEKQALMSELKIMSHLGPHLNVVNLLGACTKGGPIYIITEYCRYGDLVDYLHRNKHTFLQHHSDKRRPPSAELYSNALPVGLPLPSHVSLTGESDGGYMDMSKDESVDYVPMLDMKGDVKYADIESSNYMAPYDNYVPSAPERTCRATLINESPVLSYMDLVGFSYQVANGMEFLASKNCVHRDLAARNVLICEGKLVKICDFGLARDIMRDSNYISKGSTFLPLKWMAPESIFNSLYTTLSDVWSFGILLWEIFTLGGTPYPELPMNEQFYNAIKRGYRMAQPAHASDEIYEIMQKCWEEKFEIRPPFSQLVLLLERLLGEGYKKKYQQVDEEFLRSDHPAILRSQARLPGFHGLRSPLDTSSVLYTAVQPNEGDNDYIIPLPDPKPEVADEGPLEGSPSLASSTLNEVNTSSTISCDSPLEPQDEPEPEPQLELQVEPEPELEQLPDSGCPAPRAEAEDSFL
T2 sequence (P04626 with tags, fused parts or gaps): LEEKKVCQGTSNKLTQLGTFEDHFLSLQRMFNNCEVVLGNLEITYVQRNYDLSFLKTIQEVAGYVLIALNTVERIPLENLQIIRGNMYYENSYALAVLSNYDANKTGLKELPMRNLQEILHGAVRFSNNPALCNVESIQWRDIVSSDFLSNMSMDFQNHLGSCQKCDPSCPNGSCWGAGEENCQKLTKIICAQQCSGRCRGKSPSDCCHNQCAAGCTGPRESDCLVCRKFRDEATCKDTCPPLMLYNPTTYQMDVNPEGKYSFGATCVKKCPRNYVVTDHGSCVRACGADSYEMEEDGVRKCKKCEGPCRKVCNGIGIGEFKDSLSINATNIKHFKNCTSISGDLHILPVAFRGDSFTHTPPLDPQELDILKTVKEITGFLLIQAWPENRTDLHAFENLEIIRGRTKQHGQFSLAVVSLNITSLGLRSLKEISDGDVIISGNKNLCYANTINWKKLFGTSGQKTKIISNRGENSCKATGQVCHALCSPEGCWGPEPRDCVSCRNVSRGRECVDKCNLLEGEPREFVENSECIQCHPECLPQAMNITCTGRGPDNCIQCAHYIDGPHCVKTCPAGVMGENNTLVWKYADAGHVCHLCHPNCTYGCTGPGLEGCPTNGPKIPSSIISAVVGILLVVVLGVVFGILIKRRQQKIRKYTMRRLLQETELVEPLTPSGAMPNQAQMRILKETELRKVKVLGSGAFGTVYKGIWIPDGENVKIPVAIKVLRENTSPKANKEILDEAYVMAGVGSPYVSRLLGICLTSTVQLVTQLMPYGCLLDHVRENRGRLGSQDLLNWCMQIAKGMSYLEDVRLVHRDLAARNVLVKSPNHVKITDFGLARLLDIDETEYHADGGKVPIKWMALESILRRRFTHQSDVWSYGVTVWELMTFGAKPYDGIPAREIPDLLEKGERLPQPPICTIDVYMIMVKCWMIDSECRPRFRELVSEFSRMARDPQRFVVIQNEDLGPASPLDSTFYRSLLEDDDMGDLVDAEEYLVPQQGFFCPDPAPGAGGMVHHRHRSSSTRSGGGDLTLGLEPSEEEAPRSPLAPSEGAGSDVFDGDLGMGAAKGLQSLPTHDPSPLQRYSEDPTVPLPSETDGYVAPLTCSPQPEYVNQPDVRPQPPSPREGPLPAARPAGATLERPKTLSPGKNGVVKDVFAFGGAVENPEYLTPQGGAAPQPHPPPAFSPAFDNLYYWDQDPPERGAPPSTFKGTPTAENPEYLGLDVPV
T1 sequence (P00533 25-1210): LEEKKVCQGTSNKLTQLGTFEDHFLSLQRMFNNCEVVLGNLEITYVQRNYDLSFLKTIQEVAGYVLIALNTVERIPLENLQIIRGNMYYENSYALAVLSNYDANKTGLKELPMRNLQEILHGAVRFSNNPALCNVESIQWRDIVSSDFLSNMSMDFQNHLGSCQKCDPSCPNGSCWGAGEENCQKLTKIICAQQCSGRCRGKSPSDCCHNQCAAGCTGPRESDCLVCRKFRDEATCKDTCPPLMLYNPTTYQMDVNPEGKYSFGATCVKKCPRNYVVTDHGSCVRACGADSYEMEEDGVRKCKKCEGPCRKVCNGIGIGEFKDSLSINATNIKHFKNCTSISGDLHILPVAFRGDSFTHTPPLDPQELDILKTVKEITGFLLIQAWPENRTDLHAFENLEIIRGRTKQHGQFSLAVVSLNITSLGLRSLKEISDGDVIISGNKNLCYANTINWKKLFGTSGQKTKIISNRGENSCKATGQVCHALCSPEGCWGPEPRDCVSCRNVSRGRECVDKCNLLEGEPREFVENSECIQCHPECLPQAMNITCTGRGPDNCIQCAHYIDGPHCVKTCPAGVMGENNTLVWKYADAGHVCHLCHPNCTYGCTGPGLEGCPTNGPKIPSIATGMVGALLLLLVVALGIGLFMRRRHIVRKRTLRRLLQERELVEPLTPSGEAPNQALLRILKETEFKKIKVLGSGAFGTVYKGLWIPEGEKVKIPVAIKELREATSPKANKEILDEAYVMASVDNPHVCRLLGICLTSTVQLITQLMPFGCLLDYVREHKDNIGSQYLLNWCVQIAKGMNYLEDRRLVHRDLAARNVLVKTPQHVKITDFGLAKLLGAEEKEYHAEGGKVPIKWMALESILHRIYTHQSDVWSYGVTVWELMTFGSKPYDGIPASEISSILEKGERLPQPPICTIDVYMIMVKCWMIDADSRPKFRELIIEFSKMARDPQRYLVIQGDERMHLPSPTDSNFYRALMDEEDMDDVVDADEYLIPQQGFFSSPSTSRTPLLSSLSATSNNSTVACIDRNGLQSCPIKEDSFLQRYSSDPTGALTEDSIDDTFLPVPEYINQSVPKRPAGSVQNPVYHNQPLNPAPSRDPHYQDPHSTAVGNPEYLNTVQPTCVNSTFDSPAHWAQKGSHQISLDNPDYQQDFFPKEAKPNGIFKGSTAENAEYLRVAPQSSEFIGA

With O=C(CCl)Nc1ccc2ncnc(Nc3cc(Cl)c(Cl)cc3F)c2c1 [Compound 5, N-{4-[(4,5-Dichloro-2-fluoro-phenyl)amino]-quinazolin-6-yl}-2-chloroacetamide] as the compound, how does the IC50 (EGFR-TK) read?
The IC50 was 0.01 to 0.05 µM.

What about the IC50 (HER1-HER2 chimera) of the same compound?
The IC50 was 0.025 to 0.05 µM.

What about the IC50 (PDGFR) of the same compound?
Its IC50 is over 1 µM.

And the melting point?
Its melting point is over 300 °C.
